Legend:
[1] = molecular target: T1, SCD-1 (Homo sapiens, UniProt O00767); assay: Human enzymatic activity of SCD-1 from microsomes of HepG2 cells (conversion of [14C] stearic acid to oleic acid, HPLC); assay type: biochemical; conditions: microsomal fraction of HepG2 cells, 62 μM stearic acid, 20 minutes at 37° C., vs vehicle 0.1% DMSO; read-out: HSCD-1 (HEPG2) IC50
T1 construct: addition of 125 μg of microsomal fraction of HepG2 cells; host or cells: HepG2 human hepatocarcinoma cells (microsomal fraction)
T1 sequence (O00767 1-359): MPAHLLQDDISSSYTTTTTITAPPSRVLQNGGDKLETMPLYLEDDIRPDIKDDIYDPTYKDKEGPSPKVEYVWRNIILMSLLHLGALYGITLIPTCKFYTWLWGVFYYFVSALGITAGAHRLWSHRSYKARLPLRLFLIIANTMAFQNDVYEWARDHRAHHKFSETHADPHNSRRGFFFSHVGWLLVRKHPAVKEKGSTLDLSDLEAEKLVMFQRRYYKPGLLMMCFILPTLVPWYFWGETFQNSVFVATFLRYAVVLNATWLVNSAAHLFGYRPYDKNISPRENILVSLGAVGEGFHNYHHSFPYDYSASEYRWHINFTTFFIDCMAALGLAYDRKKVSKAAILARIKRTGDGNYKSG
Experimental: In vitro: Human enzymatic activity of SCD-1 from microsomes of HepG2 cells after treatment with the inhibitor compounds (% inhibition).
HepG2 cells of human hepatocarcinoma (ATCC, HB-8065) are cultured at confluence then trypsinated. The cell residue is solubilized in 10 mM Tris buffer (pH 7.4) sucrose (250 mM) DTT (1 mM) then the cells are lysed by sonication. The microsomes are obtained after centrifuging at 10,000 g for 20 minutes at 4° C. followed by centifrugation of the supernatant at 100,000 g for 60 minutes at 4° C. The residue is solubilized in 10 mM Tris buffer (pH 7.4) sucrose (250 mM) at 4° C. and the microsomal proteins are assayed and stored at −196° C. (liquid nitrogen).
The enzymatic reaction measures the conversion of stearic acid (C18:0 fatty acid) into oleic acid (C18:1 fatty acid) by SCD-1. The enzymatic reaction is initiated by the addition of 125 μg of microsomal fraction of HepG2 cells to tubes (total reaction volume of 500 μl) containing 62 μM stearic acid (45 μM stearic acid and 17 μM [^14C] stearic acid) in 100 mM phosphate buffer (pH 7.16) with 7.2 mM ATP, 0.54 mM CoA, 6 mM MgCl2, 0.8 mM NADH and the inhibitor compound or vehicle (0.1% DMSO). The tubes are incubated for 20 minutes at 37° C. then the enzymatic reaction is halted by the addition of KOH (12%) and saponification for 30 minutes at 80° C. After acidification (3N HCl), the fatty acids are extracted twice with ethyl ether, evaporated under nitrogen before being solubilized in methanol/dichloromethane (3:1). The reaction product (C18:1) is separated from the reaction substrate (C18:0) by HPLC (Perkin Elmer, C18 reverse phase column) coupled with an in-line radioactivity detector (FlowOne). Enzymatic activity is measured in picomoles of stearic acid converted to oleic acid per minute and per mg of protein. For each inhibitor compound, an IC50 value is determined, compared with the reference enzymatic activity (vehicle 0.1% DMSO). Sterculic acid is the reference inhibitor compound (Gomez F. E., Bauman D. E., Ntambi J. M., Fox B. G. Effects of sterculic acid on stearoyl-CoA desaturase in differentiating […] adipocytes. Biochem Biophys Res Commun. 300 316-326 (2003).

SMILES | melting point | IC50 [1]
Cn1ncc(NC(=O)N2CCC(Oc3cc(C(F)(F)F)ccc3Cl)CC2)cc1=O [Example 73, 4-(2-Chloro-5-trifluoromethyl-phenoxy)-piperidine-1-carboxylic acid (1-methyl-6-oxo-1,6-dihydro-pyridazin-4-yl)-amide] | 136 °C | 10 to 100 nM
Cn1nccc(NC(=O)N2CCC(Oc3ccc(F)c(C(F)(F)F)c3)CC2)c1=O [Example 60, 4-(4-fluoro-5-trifluoromethyl-phenoxy)-piperidine-1-carboxylic acid (2-methyl-3-oxo-2,3-dihydro-pyridazin-4-yl)-amide] | 127 °C | 100 to 1000 nM
Cc1ccc(F)cc1OC1CCN(C(=O)Nc2ccnn(C)c2=O)CC1 [Example 68, 4-(5-fluoro-2-methyl-phenoxy)-piperidine-1-carboxylic acid (2-methyl-3-oxo-2,3-dihydro-pyridazin-4-yl)-amide] | 142 °C | 100 to 1000 nM
Cn1nccc(NC(=O)N2CCC(Oc3ccc(Cl)c(Cl)c3)CC2)c1=O [Example 65, 4-(3,4-dichloro-phenoxy)-piperidine-1-carboxylic acid (2-methyl-3-oxo-2,3-dihydro-pyridazin-4-yl)-amide] | 154 °C | 1000 nM
Cn1nccc(NCC(=O)N2CCC(Oc3cc(F)ccc3C(F)(F)F)CC2)c1=O [Example 2, 4-{2-[4-(5-Fluoro-2-trifluoromethyl-phenoxy)-piperidin-1-yl]-2-oxo-ethylamino}-2-methyl-2H-pyridazin-3-one] | 140 °C | 30 to 100 nM
Cn1nccc(NCC(=O)N2CCC(Oc3cc([N+](=O)[O-])ccc3Cl)CC2)c1=O [Example 9, 4-{2-[4-(2-Chloro-5-nitro-phenoxy)-piperidin-1-yl]-2-oxo-ethylamino}-2-methyl-2H-pyridazin-3-one] | 162 °C | 100 to 1000 nM
Cn1nccc(NCC(=O)N2CCC(Oc3cc(F)cc(C(F)(F)F)c3)CC2)c1=O [Example 3, 4-{2-[4-(3-Fluoro-5-trifluoromethyl-phenoxy)-piperidin-1-yl]-2-oxo-ethylamino}-2-methyl-2H-pyridazin-3-one] | 175 °C | 100 to 1000 nM
Cn1nccc(NC(=O)N2CCC(Oc3cccc(C(F)(F)F)c3)CC2)c1=O [Example 58, 4-(5-trifluoromethyl-phenoxy)-piperidine-1-carboxylic acid (2-methyl-3-oxo-2,3-dihydro-pyridazin-4-yl)-amide] | 101 °C | 10 to 100 nM
Cn1nccc(NC(=O)N2CCC(Oc3cc(F)ccc3C(F)(F)F)CC2)c1=O [Example 61, 4-(5-fluoro-2-trifluoromethyl-phenoxy)-piperidine-1-carboxylic acid (2-methyl-3-oxo-2,3-dihydro-pyridazin-4-yl)-amide] | 145 °C | 10 to 100 nM
Cn1nccc(NCC(=O)N2CCC(Oc3cc(F)c(F)cc3Br)CC2)c1=O [Example 5, 4-{2-[4-(2-Bromo-4,5-difluoro-phenoxy)-piperidin-1-yl]-2-oxo-ethylamino}-2-methyl-2H-pyridazin-3-one] | 137 °C | 30 to 100 nM
